According to patent US20150105252A1, “SUBSTITUTED PYRAZOLES AS HERBICIDES” (E I DU PONT DE NEMOURS AND COMPANY, priority 2013, published 2015):

Key:
kochia = test: Test A postemergence; format: in vivo, Kochia scoparia
Summary of the method: (§1)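 Visual injury rating, 0–100 (0 no effect, 100 complete control), vs untreated controls ~10 days after treatment in greenhouse. Pre: directed soil spray on seeded loam/sand. Post: 2–10 cm plants, 1–2 leaf stage. Formulation: non-phytotoxic solvent mix + surfactant.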

Italian ryegrass = test: Test A postemergence; format: in vivo, Lolium multiflorum
Summary of the method: as §1

wild poinsettia = test: Test F postemergence; format: in vivo, Euphorbia heterophylla; details: scale 0 to 100
Excerpt: Seeds of plant species selected from corn (Zea mays), soybean (Glycine max), velvetleaf (Abutilon theophrasti), lambsquarters (Chenopodium album), wild poinsettia (Euphorbia heterophylla), pigweed, palmer (palmer pigweed, Amaranthus palmeri), common waterhemp (Amaranthus rudis), surinam grass (Brachiaria decumbens), large crabgrass (Digitaria sanguinalis), crabgrass, Brazil (Brazilian crabgrass, Digitaria horizontalis), fall panicum (Panicum dichotomiflorum), giant foxtail (Setaria faberii), green foxtail (Setaria viridis), goosegrass (Eleusine indica), johnsongrass (Sorghum halepense), common ragweed (Ambrosia elation), barnyardgrass (Echinochloa crus-galli), southern sandbur (Cenchrus echinatus), arrowleaf sida (Sida rhombifolia), Italian ryegrass (Lolium multiflorum), dayflower, VA (Virginia (VA) dayflower, Commelina virginica), field bindweed (Convolvulus arvensis), cocklebur (common cocklebur, Xanthium strumarium), morningglory (Ipomoea coccinea), nightshade (eastern black nightshade, Solanum ptycanthum), kochia (Kochia scoparia), yellow nutsedge (Cyperus esculentus), and hairy beggarticks (Bidens pilosa), were planted into a silt loam soil and treated preemergence with test chemicals formulated in a non-phytotoxic solvent mixture which included a surfactant.
At the same time, plants from these crop and weed species and also horseweed (Canada horseweed, Conyza canadensis), smartweed (ladysthumb smartweed, Polygonum persicaria), waterhemp_RES1, (ALS & Triazine resistant common waterhemp, Amaranthus rudis), and waterhemp_RES2, (ALS & HPPD resistant common waterhemp, Amaranthus rudis) were treated with postemergence applications of test chemicals formulated in the same manner. Plants ranged in height from 2 to 18 cm for postemergence treatments (1- to 4-leaf stage). Treated plants and controls were maintained in a greenhouse for 14 to 21 days, after which time all species were compared to controls and visually evaluated. Plant response ratings, summarized in Table F, are based on a scale of 0 to 100 where 0 is no effect and 100 is complete control. A dash (-) response means no test result.

chamomile = test: Test D preemergence; format: in vivo, Matricaria inodora; details: scale 0 to 100
Excerpt: Seeds of plant species selected from bluegrass (annual bluegrass, Poa annua), blackgrass (Alopecurus myosuroides), canarygrass (littleseed canarygrass, Phalaris minor), chickweed (common chickweed, Stellaria media), galium (catchweed bedstraw, Galium aparine), bromegrass, downy (downy bromegrass, Bromus tectorum), field poppy (Papaver rhoeas), field violet (Viola arvensis), foxtail, green (green foxtail, Setaria viridis), deadnettle (henbit deadnettle, Lamium amplexicaule), ryegrass, Italian (Italian ryegrass, Lolium multiflorum), kochia (Kochia scoparia), lambsquarters (Chenopodium album), oilseed rape (Brassica napus), pigweed (redroot pigweed, Amaranthus retroflexus), chamomile (scentless chamomile, Matricaria inodora), speedwell (bird's-eye speedwell, Veronica persica), barley, spring (spring barley, Hordeum vulgare), wheat, spring (spring wheat, Triticum aestivum), buckwheat, wild (wild buckwheat, Polygonum convolvulus), mustard, wild (wild mustard, Sinapis arvensis), oat, wild (wild oat, Avena fatua), radish, wild (wild radish, Raphanus raphanistrum), windgrass (Apera spica-venti), Russian thistle (Salsola kali), barley, winter (winter barley, Hordeum vulgare), and wheat, winter (winter wheat, Triticum aestivum) were planted into a silt loam soil and treated preemergence with test chemicals formulated in a non-phytotoxic solvent mixture which included a surfactant.
At the same time, these species were planted in pots containing Redi-Earth® planting medium (Scotts Company, 14111 Scottslawn Road, Marysville, Ohio 43041) comprising spaghnum peat moss, vermiculite, wetting agent and starter nutrients and treated with postemergence applications of the test chemicals formulated in the same manner. Plants ranged in height from 2 to 18 cm (1- to 4-leaf stage). Treated plants and controls were maintained in a controlled growth environment for 14 to 21 days after which time all species were compared to controls and visually evaluated. Plant response ratings, summarized in Table D, are based on a scale of 0 to 100 where 0 is no effect and 100 is complete control. A dash (-) response means no test result.

[1] = Postemergence, 500 g ai/ha, 0 to 100 scale (0 no effect, 100 complete control)
[2] = postemergence, 125 g ai/ha, about 10 days, visual rating on 0 to 100 scale (0 no effect, 100 complete control)
[3] = Postemergence, 125 g ai/ha, 0 to 100 scale, 0 no effect, 100 complete control

CCOc1cc(C(=O)NC2CC2)nn1Cc1ccnc(OC(F)F)c1 [Compound 133]
Kochia plant response rating (kochia; [1]): 100 | Kochia plant response rating (kochia; [2]): 90 | Italian Ryegrass plant response rating (Italian ryegrass; [1]): 80 | Italian Ryegrass plant response rating (Italian ryegrass; [2]): 60

CCc1cc(C(=O)NCC(F)(F)F)nn1Cc1ccnc(C(F)(F)F)c1 [Compound 78, 5-ethyl-N-(2,2,2-trifluoroethyl)-1-[[(2-trifluoromethyl)-4-pyridinyl]methyl]-1H-pyrazole-3-carboxamide]
Plant response rating, Wild Poinsettia (wild poinsettia; Postemergence, 31 g ai/ha): 25 | Plant response rating, Wild Poinsettia (wild poinsettia; Postemergence, 125 g ai/ha): 70 | Plant response rating, Wild Poinsettia (wild poinsettia; Postemergence, 250 g ai/ha): 80 | Plant response rating, Wild Poinsettia (wild poinsettia; postemergence, 62 g ai/ha): 50 | Plant response rating, Wild Poinsettia (wild poinsettia; postemergence, 500 g ai/ha): 90

CCCc1cc(C(=O)NCC(F)(F)F)nn1Cc1ccnc(C(F)(F)F)c1 [Compound 105]
Plant response rating, Wild Poinsettia (wild poinsettia; Postemergence, 31 g ai/ha): 40 | Plant response rating, Wild Poinsettia (wild poinsettia; Postemergence, 125 g ai/ha): 70 | Plant response rating, Wild Poinsettia (wild poinsettia; Postemergence, 250 g ai/ha): 100 | Plant response rating, Wild Poinsettia (wild poinsettia; postemergence, 62 g ai/ha): 50 | Plant response rating, Wild Poinsettia (wild poinsettia; postemergence, 500 g ai/ha): 100

CCOc1cc(C(=O)NCC(F)(F)F)nn1Cc1ccnc(C(F)(F)F)c1 [Compound 104]
Plant response rating, Wild Poinsettia (wild poinsettia; Postemergence, 31 g ai/ha): 45 | Plant response rating, Wild Poinsettia (wild poinsettia; Postemergence, 125 g ai/ha): 95 | Plant response rating, Wild Poinsettia (wild poinsettia; Postemergence, 250 g ai/ha): 90 | Plant response rating, Wild Poinsettia (wild poinsettia; postemergence, 62 g ai/ha): 60 | Plant response rating, Wild Poinsettia (wild poinsettia; postemergence, 500 g ai/ha): 100

CCCc1cc(C(=O)NCC(F)(F)F)nn1Cc1cc(C(F)(F)F)nn1C [Compound 138]
Plant response rating, Chamomile (chamomile; 31 g ai/ha): 0 | Plant response rating, Chamomile (chamomile; 62 g ai/ha): 95 | Plant response rating, Chamomile (chamomile; 125 g ai/ha): 100 | Plant response rating, Chamomile (chamomile; 250 g ai/ha): 100

CCONC(=O)c1cc(CC)n(Cc2cc(C(F)(F)F)no2)n1 [Compound 125]
Kochia plant response rating (kochia; [1]): 90 | Kochia plant response rating (kochia; [2]): 60 | Italian Ryegrass plant response rating (Italian ryegrass; [1]): 80 | Italian Ryegrass plant response rating (Italian ryegrass; [2]): 20

CCc1cc(C(=O)NCC(F)(F)F)nn1Cc1cc(OC(F)F)nn1C [Compound 206]
Kochia plant response rating (kochia; [3]): 80 | Kochia plant response rating (kochia; [1]): 90 | Italian Ryegrass plant response rating (Italian ryegrass; [3]): 0 | Italian Ryegrass plant response rating (Italian ryegrass; [1]): 50

CCOc1cc(C(=O)NC(C)C)nn1Cc1ccnc(C(F)(F)F)c1 [Compound 188]
Plant response rating, Chamomile (chamomile; 31 g ai/ha): 100 | Plant response rating, Chamomile (chamomile; 62 g ai/ha): 100 | Plant response rating, Chamomile (chamomile; 125 g ai/ha): 100 | Plant response rating, Chamomile (chamomile; 250 g ai/ha): 100 | Plant response rating, Wild Poinsettia (wild poinsettia; Postemergence, 31 g ai/ha): 60 | Plant response rating, Wild Poinsettia (wild poinsettia; Postemergence, 125 g ai/ha): 60 | Plant response rating, Wild Poinsettia (wild poinsettia; Postemergence, 250 g ai/ha): 80 | Plant response rating, Wild Poinsettia (wild poinsettia; postemergence, 62 g ai/ha): 70 | Plant response rating, Wild Poinsettia (wild poinsettia; postemergence, 500 g ai/ha): 85

CCOc1cc(C(=O)NC2CC2)nn1Cc1ccnc(C(F)(F)F)c1 [Compound 189]
Plant response rating, Chamomile (chamomile; 31 g ai/ha): 65 | Plant response rating, Chamomile (chamomile; 62 g ai/ha): 100 | Plant response rating, Chamomile (chamomile; 125 g ai/ha): 100 | Plant response rating, Chamomile (chamomile; 250 g ai/ha): 100
